In PubChem BioAssay (NCI):
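At the GI50, growth is halved. TGI marks complete inhibition of growth.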

Assays:
Experiment in all cases: NCI anticancer screen, dose series, 384-well format
786-0 renal = tested on: 786-0 renal
RXF 393 renal = tested on: RXF 393 renal
SF-268 CNS = tested on: SF-268 CNS
M14 melanoma = tested on: M14 melanoma
MOLT-4 leukemia = tested on: MOLT-4 leukemia
EKVX NSCLC = tested on: EKVX NSCLC
SF-295 CNS = tested on: SF-295 CNS
MALME-3M melanoma = tested on: MALME-3M melanoma
OVCAR-8 ovarian = tested on: OVCAR-8 ovarian
KM12 colon = tested on: KM12 colon
SF-539 CNS = tested on: SF-539 CNS
COLO 205 colon = tested on: COLO 205 colon
SK-MEL-5 melanoma = tested on: SK-MEL-5 melanoma
MDA-MB-435 melanoma = tested on: MDA-MB-435 melanoma
A498 renal = tested on: A498 renal
MCF7 breast = tested on: MCF7 breast
UACC-257 melanoma = tested on: UACC-257 melanoma
UO-31 renal = tested on: UO-31 renal
CAKI-1 renal = tested on: CAKI-1 renal
SNB-75 CNS = tested on: SNB-75 CNS
SN12C renal = tested on: SN12C renal
A549 NSCLC = tested on: A549 NSCLC
DU-145 prostate = tested on: DU-145 prostate
SK-OV-3 ovarian = tested on: SK-OV-3 ovarian
HOP-92 NSCLC = tested on: HOP-92 NSCLC
CCRF-CEM leukemia = tested on: CCRF-CEM leukemia
NCI-H322M lung = tested on: NCI-H322M lung
T-47D breast = tested on: T-47D breast
MDA-MB-468 breast = tested on: MDA-MB-468 breast
NCI-H23 lung = tested on: NCI-H23 lung
ACHN renal = tested on: ACHN renal
HCC-2998 colon = tested on: HCC-2998 colon
HCT-15 colon = tested on: HCT-15 colon
IGROV1 ovarian = tested on: IGROV1 ovarian
NCI/ADR-RES ovarian = tested on: NCI/ADR-RES ovarian
HL-60(TB) leukemia = tested on: HL-60(TB) leukemia
K-562 leukemia = tested on: K-562 leukemia
TK-10 renal = tested on: TK-10 renal
NCI-H522 lung = tested on: NCI-H522 lung
HOP-62 NSCLC = tested on: HOP-62 NSCLC
OVCAR-3 ovarian = tested on: OVCAR-3 ovarian
HS 578T breast = tested on: HS 578T breast
NCI-H226 lung = tested on: NCI-H226 lung
BT-549 breast = tested on: BT-549 breast
PC-3 prostate = tested on: PC-3 prostate
HT29 colon = tested on: HT29 colon
UACC-62 melanoma = tested on: UACC-62 melanoma
MDA-MB-231 breast = tested on: MDA-MB-231 breast
LOX IMVI melanoma = tested on: LOX IMVI melanoma
OVCAR-4 ovarian = tested on: OVCAR-4 ovarian
SK-MEL-28 melanoma = tested on: SK-MEL-28 melanoma
HCT-116 colon = tested on: HCT-116 colon
NCI-H460 NSCLC = tested on: NCI-H460 NSCLC
SR leukemia = tested on: SR leukemia
U251 glioblastoma = tested on: U251 glioblastoma
SW-620 colon = tested on: SW-620 colon
RPMI-8226 leukemia = tested on: RPMI-8226 leukemia
SNB-19 CNS = tested on: SNB-19 CNS

SMILES: C=CC(=O)Nc1cccc(Nc2nc(Nc3ccc(OCCOC)cc3)ncc2F)c1
- GI50 ([…]-0 renal): 1.68 µM
- TGI (786-0 renal): 6.51 µM
- GI50 (RXF 393 renal): 0.867 µM
- TGI (RXF 393 renal): 3.26 µM
- GI50 (SF-268 CNS): 2.34 µM
- TGI (SF-268 CNS): 10.5 µM
- GI50 (M14 melanoma): 1.71 µM
- TGI (M14 melanoma): 14.7 µM
- GI50 (MOLT-4 leukemia): 1.47 µM
- TGI (MOLT-4 leukemia): 2.84 µM
- GI50 (EKVX NSCLC): 2.06 µM
- TGI (EKVX NSCLC): 9.06 µM
- GI50 (SF-295 CNS): 4.9 µM
- TGI (SF-295 CNS): 17.1 µM
- GI50 (MALME-3M melanoma): 3.64 µM
- TGI (MALME-3M melanoma): 16.8 µM
- GI50 (OVCAR-8 ovarian): 2.51 µM
- TGI (OVCAR-8 ovarian): 8.72 µM
- GI50 (KM12 colon): 3.53 µM
- TGI (KM12 colon): 14.3 µM
- GI50 (SF-539 CNS): 1.48 µM
- TGI (SF-539 CNS): 3.26 µM
- GI50 (COLO 205 colon): 5.33 µM
- TGI (COLO 205 colon): 16.7 µM
- GI50 (SK-MEL-5 melanoma): 4.78 µM
- TGI (SK-MEL-5 melanoma): 18 µM
- GI50 (MDA-MB-435 melanoma): 5.33 µM
- TGI (MDA-MB-435 melanoma): 17.6 µM
- GI50 (A498 renal): 0.493 µM
- TGI (A498 renal): 1.93 µM
- GI50 (MCF7 breast): 3.1 µM
- TGI (MCF7 breast): 14.8 µM
- GI50 (UACC-257 melanoma): 6.67 µM
- TGI (UACC-257 melanoma): 19.3 µM
- GI50 (UO-31 renal): 1.17 µM
- TGI (UO-31 renal): 3.39 µM
- GI50 (CAKI-1 renal): 0.602 µM
- TGI (CAKI-1 renal): 2.08 µM
- GI50 (SNB-75 CNS): 1.1 µM
- TGI (SNB-75 CNS): 2.82 µM
- GI50 (SN12C renal): 1.28 µM
- TGI (SN12C renal): 4.07 µM
- GI50 (A549 NSCLC): 2.88 µM
- TGI (A549 NSCLC): 11.2 µM
- GI50 (DU-145 prostate): 2.21 µM
- TGI (DU-145 prostate): 13.5 µM
- GI50 (SK-OV-3 ovarian): 0.755 µM
- TGI (SK-OV-3 ovarian): 3.02 µM
- GI50 (HOP-92 NSCLC): 1.82 µM
- TGI (HOP-92 NSCLC): 9.64 µM
- GI50 (CCRF-CEM leukemia): 1.62 µM
- TGI (CCRF-CEM leukemia): 3.39 µM
- GI50 (NCI-H322M lung): 1.63 µM
- TGI (NCI-H322M lung): 8.82 µM
- GI50 (T-47D breast): 2.49 µM
- TGI (T-47D breast): 13.9 µM
- GI50 (MDA-MB-468 breast): 0.562 µM
- TGI (MDA-MB-468 breast): 1.76 µM
- GI50 (NCI-H23 lung): 2.42 µM
- TGI (NCI-H23 lung): 12.9 µM
- GI50 (ACHN renal): 1.01 µM
- TGI (ACHN renal): 3.51 µM
- GI50 (HCC-2998 colon): 2.55 µM
- TGI (HCC-2998 colon): 13.7 µM
- GI50 (HCT-15 colon): 1.97 µM
- TGI (HCT-15 colon): 12.9 µM
- GI50 (IGROV1 ovarian): 1 µM
- TGI (IGROV1 ovarian): 2.28 µM
- GI50 (NCI/ADR-RES ovarian): 2.44 µM
- TGI (NCI/ADR-RES ovarian): 6.32 µM
- GI50 (HL-60(TB) leukemia): 1.21 µM
- TGI (HL-60(TB) leukemia): 2.64 µM
- GI50 (K-562 leukemia): 3.73 µM
- TGI (K-562 leukemia): 13.6 µM
- GI50 (TK-10 renal): 1.31 µM
- TGI (TK-10 renal): 3.09 µM
- GI50 (NCI-H522 lung): 1.48 µM
- TGI (NCI-H522 lung): 4.37 µM
- GI50 (HOP-62 NSCLC): 2.9 µM
- TGI (HOP-62 NSCLC): 11.1 µM
- GI50 (OVCAR-3 ovarian): 1.22 µM
- TGI (OVCAR-3 ovarian): 4.74 µM
- GI50 (HS 578T breast): 1.05 µM
- TGI (HS 578T breast): 2.85 µM
- GI50 (NCI-H226 lung): 1 µM
- TGI (NCI-H226 lung): 5.79 µM
- GI50 (BT-549 breast): 0.802 µM
- TGI (BT-549 breast): 2.84 µM
- GI50 (PC-3 prostate): 2.81 µM
- TGI (PC-3 prostate): 12.6 µM
- GI50 (HT29 colon): 2.98 µM
- TGI (HT29 colon): 11.6 µM
- GI50 (UACC-62 melanoma): 1.52 µM
- TGI (UACC-62 melanoma): 12.8 µM
- GI50 (MDA-MB-231 breast): 2.3 µM
- TGI (MDA-MB-231 breast): 14.7 µM
- GI50 (LOX IMVI melanoma): 2.19 µM
- TGI (LOX IMVI melanoma): 6.05 µM
- GI50 (OVCAR-4 ovarian): 10.3 µM
- TGI (OVCAR-4 ovarian): 22.1 µM
- GI50 (SK-MEL-28 melanoma): 9.82 µM
- TGI (SK-MEL-28 melanoma): 21.6 µM
- GI50 (HCT-116 colon): 2.5 µM
- TGI (HCT-116 colon): 12.7 µM
- GI50 (NCI-H460 NSCLC): 2.02 µM
- TGI (NCI-H460 NSCLC): 10.3 µM
- GI50 (SR leukemia): 0.933 µM
- TGI (SR leukemia): 2.66 µM
- GI50 (U251 glioblastoma): 2.86 µM
- TGI (U251 glioblastoma): 13.1 µM
- GI50 (SW-620 colon): 1.84 µM
- TGI (SW-620 colon): 4.16 µM
- GI50 (RPMI-8226 leukemia): 1.01 µM
- TGI (RPMI-8226 leukemia): 2.99 µM
- GI50 (SNB-19 CNS): 4.01 µM
- TGI (SNB-19 CNS): 14.6 µM
